From US20260274833A1 (NiKang Therapeutics, Inc., priority 2022, published 2026)

Biological target: T1, CDK2 (Homo sapiens, UniProt P24941)
T1 construct: endogenous in cells; host or cells: OVCAR3 cells
Test: Phospho-RB measurement in OVCAR3 cells (HTRF phospho-RB cellular kit)
Assay type: cell-based
Conditions: inhibition of RB phosphorylation at S807/811 (HTRF, TR-FRET ratio 665/620), 24 h compound treatment, 0.3 to 10,000 nM
In short: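 IC50 came from a four-parameter logistic fit of the DMSO-normalized TR-FRET ratio (665/620 nm). That ratio reflects RB phosphorylation at S807/811, read with an HTRF antibody pair 4 h after adding lysate at room temperature.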

SMILES	IC50 [nM]
CS(=O)(=O)[C@H]1CC[C@H](Nc2nccc(-c3sc(C4(C(F)(F)F)CC4)nc3-c3cccc(NS(=O)(=O)N4CCc5ccc(C(F)(F)F)cc54)c3F)n2)CC1 [Example 282, N-(2-fluoro-3-(5-(2-(((1r,4r)-4-(methylsulfonyl)cyclohexyl)amino)pyrimidin-4-yl)-2-(1-(trifluoromethyl)-cyclopropyl)thiazol-4-yl)phenyl)-6-(trifluoromethyl) indoline-1-sulfonamide]	357
CS(=O)(=O)[C@H]1CC[C@H](Nc2nccc(-c3sc(C4(C(F)(F)F)CC4)nc3-c3cccc(NS(=O)(=O)N4CCc5ccc(Cl)cc54)c3F)n2)CC1 [Example 283, 6-chloro-N-(2-fluoro-3-(5-(2-(((1r,4r)-4-(methylsulfonyl)cyclohexyl)amino)pyrimidin-4-yl)-2-(1-(trifluoromethyl)-cyclopropyl)thiazol-4-yl)phenyl)-indoline-1-sulfonamide]	200
CS(=O)(=O)[C@H]1CC[C@H](Nc2nccc(-c3sc(C4(C(F)(F)F)CC4)nc3-c3cccc(NS(=O)(=O)N4CCc5ccccc54)c3F)n2)CC1 [Example 284, N-(2-fluoro-3-(5-(2-(((11,4r)-4-(methylsulfonyl)cyclohexyl)amino)pyrimidin-4-yl)-2-(1-(trifluoromethyl)-cyclopropyl)thiazol-4-yl)phenyl)-indoline-1-sulfonamide]	384
CC1(S(C)(=O)=O)CCC(Nc2nccc(-c3sc(C45CC(C(F)(F)F)(C4)C5)nc3-c3cccc(NS(=O)(=O)N4CCc5ccccc54)c3F)n2)CC1 (stereo not drawn) [Example 285, N-(2-fluoro-3-(5-(2-((4-methyl-4-(methylsulfonyl)cyclohexyl)amino)pyrimidin-4-yl)-2-(3-(trifluoromethyl)bicyclo-[1.1.1]pentan-1-yl)thiazol-4-yl)phenyl)-indoline-1-sulfonamide]	3060
O=S1(=O)CC2(CC(Nc3nccc(-c4sc(C5(C(F)(F)F)CC5)nc4-c4cccc(NS(=O)(=O)N5CCc6ccc(C(F)(F)F)cc65)c4F)n3)C2)C1 [Example 286, N-(3-(5-(2-((2,2-dioxido-2-thiaspiro-[3.3]heptan-6-yl)amino)pyrimidin-4-yl)-2-(1-(trifluoromethyl)cyclopropyl)-thiazol-4-yl)-2-fluorophenyl)-6-(trifluoromethyl) indoline-1-sulfonamide]	574
O=S1(=O)CC2(CC(Nc3nccc(-c4sc(C5(C(F)(F)F)CC5)nc4-c4cccc(NS(=O)(=O)N5CCc6ccc(Cl)cc65)c4F)n3)C2)C1 [Example 287, 6-chloro-N-(3-(5-(2-((2,2-dioxido-2-thiaspiro[3.3]heptan-6-yl)amino)-pyrimidin-4-yl)-2-(1-(trifluoromethyl)-cyclopropyl)thiazol-4-yl)-2-fluoro-phenyl)indoline-1-sulfonamide]	347
CC(C)(c1nc(-c2cccc(NS(=O)(=O)N3CCc4ccccc43)c2F)c(-c2ccnc(N[C@H]3CC[C@H](S(C)(=O)=O)CC3)n2)s1)C(F)(F)F [Example 288, N-(2-fluoro-3-(5-(2-(((1r,4r)-4-(methylsulfonyl)cyclohexyl)amino)-pyrimidin-4-yl)-2-(1,1,1-trifluoro-2-methylpropan-2-yl)thiazol-4-yl)phenyl)-indoline-1-sulfonamide]	122
CC(C)(c1nc(-c2cccc(NS(=O)(=O)N3CCc4ccc(Cl)cc43)c2F)c(-c2ccnc(N[C@H]3CC[C@H](S(C)(=O)=O)CC3)n2)s1)C(F)(F)F [Example 289, 6-chloro-N-(2-fluoro-3-(5-(2-(((1r,4r)-4-(methylsulfonyl)cyclohexyl)amino)pyrimidin-4-yl)-2-(1,1,1-trifluoro-2-methyl-propan-2-yl)thiazol-4-yl)phenyl)-indoline-1-sulfonamide]	110
CC(C)(c1nc(-c2cccc(NS(=O)(=O)N3CCc4ccc(C(F)(F)F)cc43)c2F)c(-c2ccnc(N[C@H]3CC[C@H](S(C)(=O)=O)CC3)n2)s1)C(F)(F)F [Example 290, N-(2-fluoro-3-(5-(2-(((1r,4r)-4-(methylsulfonyl)cyclohexyl)amino)-pyrimidin-4-yl)-2-(1,1,1-trifluoro-2-methylpropan-2-yl)thiazol-4-yl)phenyl)-6-(trifluoromethyl) indoline-1-sulfonamide]	298
CC1(C)CN(S(=O)(=O)Nc2cccc(-c3nc(C45CC(C(F)(F)F)(C4)C5)sc3-c3ccnc(N[C@H]4CC[C@H](S(C)(=O)=O)CC4)n3)c2F)c2ccccc21 [Example 291, N-(2-fluoro-3-(5-(2-(((1r,4r)-4-(methylsulfonyl)cyclohexyl)amino)pyrimidin-4-yl)-2-(3-(trifluoromethyl)-bicyclo[1.1.1]pentan-1-yl)thiazol-4-yl)phenyl)-3,3-dimethylindoline-1-sulfonamide]	2750
CN1CC2CCC(C1)N2c1nc(-c2cccc(NS(=O)(=O)N3CCc4ccc(C(F)(F)F)cc43)c2F)c(-c2ccnc(NC3CC4(C3)CS(=O)(=O)C4)n2)s1 [Example 292, N-(3-(5~(2-((2,2-dioxido-2-thiaspiro-[3.3]heptan-6-yl)amino)pyrimidin-4-yl)-2-(3-methyl-3,8-diazabicyclo[3.2.1]-octan-8-yl)thiazol-4-yl)-2-fluorophenyl)-6-(trifluoromethyl) indoline-1-sulfonamide]	29.9
O=S1(=O)CC2(CC(Nc3nccc(-c4sc(N5C6CCC5CN(C5CC(F)(F)C5)C6)nc4-c4cccc(NS(=O)(=O)N5CCc6ccc(C(F)(F)F)cc65)c4F)n3)C2)C1 [Example 293, N-(3-(2-(3-(3,3-difluorocyclobutyl)-3,8-diazabicyclo[3.2.1]octan-8-yl)-5-(2-((2,2-dioxido-2-thiaspiro[3.3]heptan-6-yl)amino)pyrimidin-4-yl)thiazol-4-yl)-2-fluorophenyl)-6-(trifluoromethyl)-indoline-1-sulfonamide]	372
CN1CC2CCC(C1)N2c1nc(-c2cccc(NS(=O)(=O)N3CCc4ccc(C(F)(F)F)cc43)c2F)c(-c2ccnc(N[C@H]3CC[C@H](S(C)(=O)=O)CC3)n2)s1 [Example 294, N-(2-fluoro-3-(2-(3-methyl-3,8-diazabicyclo[3.2.1]octan-8-yl)-5-(2-(((1r,4r)-4-(methylsulfonyl)cyclohexyl)-amino)pyrimidin-4-yl)thiazol-4-yl)phenyl)-6-(trifluoromethyl) indoline-1-sulfonamide]	42.9
CS(=O)(=O)[C@H]1CC[C@H](Nc2nccc(-c3sc(N4C5CCC4CN(C4CC(F)(F)C4)C5)nc3-c3cccc(NS(=O)(=O)N4CCc5ccc(C(F)(F)F)cc54)c3F)n2)CC1 [Example 295, N-(3-(2-(3-(3,3-difluorocyclobutyl)-3,8-diazabicyclo[3.2.1]octan-8-yl)-5-(2-(((1r,4r)-4-(methylsulfonyl)cyclohexyl)-amino)pyrimidin-4-yl)thiazol-4-yl)-2-fluorophenyl)-6-(trifluoromethyl)-indoline-1-sulfonamide]	536
CS(=O)(=O)[C@H]1CC[C@H](Nc2nccc(-c3sc(N4C5CCC4CN(CC(F)(F)F)C5)nc3-c3cccc(NS(=O)(=O)N4CCc5ccc(C(F)(F)F)cc54)c3F)n2)CC1 [Example 296, N-(2-fluoro-3-(5-(2-(((1r,4r)-4-(methylsulfonyl)cyclohexyl)amino)-pyrimidin-4-yl)-2-(3-(2,2,2-trifluoroethyl)-3,8-diazabicyclo[3.2.1]-octan-8-yl)thiazol-4-yl)phenyl)-6-(trifluoromethyl) indoline-1-sulfonamide]	1190
C[C@H]1COC[C@H](C)N1c1nc(-c2cccc(NS(=O)(=O)N3CCc4ccc(C(F)(F)F)cc43)c2F)c(-c2ccnc(N[C@H]3CC[C@H](S(C)(=O)=O)CC3)n2)s1 [Example 297, N-(3-(2-((38, 5S)-3,5-dimethyl-morpholino)-5-(2-(((1r,4S)-4-(methyl-sulfonyl)cyclohexyl)amino)pyrimidin-4-yl)thiazol-4-yl)-2~fluorophenyl)-6-(trifluoromethyl) indoline-1-sulfonamide]	103
CS(=O)(=O)[C@H]1CC[C@H](Nc2nccc(-c3sc(N4C5CCC4CC(F)(F)C5)nc3-c3cccc(NS(=O)(=O)N4CCc5ccc(C(F)(F)F)cc54)c3F)n2)CC1 [Example 298, N-(3-(2-(3,3-difluoro-8-azabicyclo-[3.2.1]octan-8-yl)-5-(2-(((1r,4r)-4-(methylsulfonyl)cyclohexyl)amino)-pyrimidin-4-yl)thiazol-4-yl)-2-fluoro-phenyl)-6-(trifluoromethyl)-indoline-1-sulfonamide]	130
CS(=O)(=O)[C@H]1CC[C@H](Nc2nccc(-c3sc(N4C5CCC4CN(CC(F)F)C5)nc3-c3cccc(NS(=O)(=O)N4CCc5ccc(C(F)(F)F)cc54)c3F)n2)CC1 [Example 299, N-(3-(2-(3-(2,2-difluoroethyl)-3,8-diazabicyclo[3.2.1]octan-8-yl)-5-(2-(((1r,4r)-4-(methylsulfonyl)cyclohexyl)-amino)pyrimidin-4-yl)thiazol-4-yl)-2-fluorophenyl)-6-(trifluoromethyl)-indoline-1-sulfonamide]	449
